{
  "source": "patent US20230398118A1",
  "about": "“METHODS OF TREATING CARDIOVASCULAR-RELATED DISEASE” (Keros Therapeutics, Inc., priority 2020, published 2023)",
  "type_in_all_cases": "in vivo, human",
  "key": {"[1]": {"assay": "Pharmacokinetics after single and multiple oral doses", "description": "(§1) The primary objectives of this study were to a) evaluate safety and tolerability of escalating doses of the compound of Formula I-11 administered as single and multiple oral doses in healthy male volunteers and healthy postmenopausal female volunteers and b) evaluate the PK parameters following escalating doses of the compound of Formula I-11 administered as single and multiple oral doses. The […] secondary objective of this study was to evaluate the pharmacodynamic (PD) parameters following escalating doses of the compound of Formula I-11 administered as single and multiple oral doses. This study was conducted in two parts.\n(§2) Participants in Part 1 received a single oral dose of the compound of Formula I-11 or placebo on Day 1 and serial PK samples were collected. Baseline assessments were performed on day −1 prior to dosing. Samples were collected for determination of pharmacodynamic parameters at pre-dose daily and up to 24 hours post dose (day 2) after a single oral dose of the compound of Formula I-11. Participants remained at the study site for observation for 24 hours post-dose through the PK sample collection on Day 2. Participants returned to the site for the 48, 72, and 120-hour post-dose sample collection on Days 3, 4, and 6. Safety was evaluated by a Safety Review Committee prior to escalation to the next dose level cohort.\nParticipants in Part 2, Cohorts 1 through 3, received a daily oral dose of the compound of Formula I-11 (50, 100, or 200 mg liquid formulation respectively) or placebo for 7 days. A daily oral dose of the compound of Formula I-11 or placebo in participants in Part 2, Cohort 4 (350 mg liquid formulation) was planned for 14 days but was discontinued early in all subjects, either by the Investigator because of AEs, or by the Sponsor. A decision was made by the Sponsor to discontinue dosing of the entire cohort based on the frequency of AEs and laboratory abnormalities after Day 9. […] Safety was evaluated by a Safety Review Committee prior to escalation to the next dose level cohort. […]"}, "[2]": {"test_system": "healthy male volunteers and healthy postmenopausal female volunteers", "assay": "Pharmacodynamics: serum cholesterol, LDL and HDL cholesterol by standard clinical laboratory tests", "description": "as §1, §2\n(§3) Participants in Part 2, Cohorts 1 through 3, received a daily oral dose of the compound of Formula I-11 (50, 100, or 200 mg liquid formulation respectively) or placebo for 7 days. A daily oral dose of the compound of Formula I-11 or placebo in participants in Part 2, Cohort 4 (350 mg liquid formulation) was planned for 14 days but was discontinued early in all subjects, either by the Investigator because of AEs, or by the Sponsor. A decision was made by the Sponsor to discontinue dosing of the entire cohort based on the frequency of AEs and laboratory abnormalities after Day 9. In Cohort 4, participants on the compound of Formula I-11 received daily oral dosing of 350 mg for up to 7 days; one placebo participant received daily oral dosing for 9 days. Samples were collected for determination of pharmacodynamic parameters at pre-dose daily and to 24 hours post dose (day 8) while on drug. Daily trough PK samples were collected for the determination of steady-state from Day 2 to Day 12 or 13. Participants returned to the site on Day 30 for an end-of-study visit. Safety was evaluated by a Safety Review Committee prior to escalation to the next dose level cohort.\nPharmacodynamic endpoints: Protocol-specified endpoints were assessed at baseline and regularly throughout the study period. These assessments included serum cholesterol, LDL, and HDL cholesterol. Measurements of all pharmacodynamic end points were made using standard clinical laboratory tests."}, "[3]": {"test_system": "healthy male volunteers and healthy postmenopausal female volunteers", "assay": "Phase 1 safety and tolerability, single and multiple ascending oral doses", "description": "A total of 131 healthy, males aged 18 to 60 years and post-menopausal females aged 45 to 60 years, participated in this study.\nas §1\nPart 1 included 80 participants (10 cohorts of 8 participants each). Male and female participants who met the eligibility criteria were randomly assigned, in a ratio of 3:1 to receive the compound of Formula I-11 or matching placebo, N=6 and 2 per dose cohort, respectively. Participant enrollment included […] males and 12.5% females (postmenopausal). The IMP formulation used in Cohorts 1 through 6 was an oral capsule (doses of 1, 3, 10, 30, 100, or 300 mg capsule formulation). An oral liquid formulation was evaluated in Cohorts 7 through 10 (doses of 30, 100, 300 or 450 mg liquid formulation).\nas §2\nPart 2, Cohorts 1 through 4, included 41 participants (4 cohorts of 10 participants each and 1 additional placebo participant in Cohort 1). Male and female participants who met the eligibility criteria were randomly assigned at a ratio of 4:1 to receive either the compound of Formula I-11 oral liquid formulation or matching placebo, N=8 and 2 per dose cohort respectively. Forty (97.6%) males and 1 (2.4%) female (placebo) participant were enrolled.\nas §3\nPart 2, MAD Cohort 5 participants received either the compound of Formula I-11, 100 mg (n=8) or placebo (n=2) on Days 1, 2, 3, 4, 5, 6, 7. The last dose was administered on the morning of Day 7. […]"}, "[4]": {"conditions": "repeated oral administration, all MAD cohorts (1-5), Day 7"}},
  "data": [
    {"smiles": "COc1cc2c(-c3cnn4cc(N5CCC(N6CCN(C)CC6)CC5)cnc34)ccnc2cc1F", "note": "[Formula I-11]", "values": [
      {"measurement": "half-life", "setting": "[1]; both sexes, in vivo, human, oral", "value": "10 to 15", "unit": "h"},
      {"measurement": "Mean AUC, dose dependence", "setting": "[1]; multiple doses from 50-200 mg", "value": "increased linearly with greater than dose-proportional increases"},
      {"measurement": "Mean Cmax, dose dependence", "setting": "[1]; multiple doses from 50-200 mg", "value": "increased linearly with greater than dose-proportional increases"},
      {"measurement": "decrease in LDL compared with HDL cholesterol", "setting": "[2]; all MAD cohorts, Day 7", "value": "greater decreases in LDL than HDL cholesterol"},
      {"measurement": "total cholesterol", "setting": "[2]; repeated oral administration, MAD Cohorts 1-4, across the one-week dosing period", "value": "decreases in total cholesterol"},
      {"measurement": "HDL cholesterol", "setting": "[2]; [4]", "value": "decreases in HDL cholesterol"},
      {"measurement": "LDL cholesterol", "setting": "[2]; [4]", "value": "decreases in LDL cholesterol"},
      {"measurement": "total cholesterol", "setting": "[2]; single oral administration, SAD cohorts, within 24 hours", "value": "decreases in total cholesterol"},
      {"measurement": "dose level well tolerated", "setting": "[3]; after 7 daily oral doses (Part 2, MAD)", "value": "up to 200 mg"},
      {"measurement": "subjects with increases in ALT >2x ULN", "setting": "[3]; both, human, in vivo", "value": 3, "unit": "subjects"},
      {"measurement": "AEs reported and higher than placebo", "setting": "[3]; in vivo", "value": "headache, nausea, vomiting, diarrhea, gastroenteritis, chills, pyrexia, myalgia, decreased appetite, lymphopenia, neutropenia, and liver enzyme increases"},
      {"measurement": "serious adverse events", "setting": "[3]; in vivo", "value": "no serious adverse events"},
      {"measurement": "severity of the majority of AEs", "setting": "[3]; in vivo", "value": "mild or moderate in severity"},
      {"measurement": "participants who discontinued the study", "setting": "[3]; male, human, in vivo", "value": "3 (9.4%) participants"},
      {"measurement": "dose level well tolerated", "setting": "[3]; single oral dose (Part 1, SAD)", "value": "up to 450 mg"}
    ]}
  ]
}
